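All cell lines were grown in 96-well plates and treated with compound for 48 hours. The concentration for full growth arrest is given as TGI.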
Assays:
Test in all cases: NCI tumour cell line growth inhibition, 48 h
[1] = test system: OVCAR-4 ovarian
[2] = test system: HCT-15 colon
[3] = test system: MCF7 breast
[4] = test system: SN12K1 renal
[5] = test system: P388 leukemia
[6] = test system: HOP-18 NSCLC
[7] = test system: IGROV1 ovarian
[8] = test system: DMS 114 small cell lung
[9] = test system: SF-268 CNS
[10] = test system: EKVX NSCLC
[11] = test system: P388/ADR leukemia
[12] = test system: SK-OV-3 ovarian
[13] = test system: OVCAR-8 ovarian
[14] = test system: CCRF-CEM leukemia
[15] = test system: NCI-H226 lung
[16] = test system: RPMI-8226 leukemia
[17] = test system: U251 CNS
[18] = test system: K-562 leukemia
[19] = test system: OVCAR-3 ovarian
[20] = test system: SNB-75 CNS
[21] = test system: SN12C renal
[22] = test system: SF-295 CNS
[23] = test system: A498 renal
[24] = test system: UACC-62 melanoma
[25] = test system: DLD-1 colon
[26] = test system: HCT-116 colon
[27] = test system: UACC-257 melanoma
[28] = test system: NCI-H460 lung
[29] = test system: NCI-H23 lung
[30] = test system: SK-MEL-5 melanoma
[31] = test system: CAKI-1 renal
[32] = test system: COLO 205 colon
[33] = test system: HL-60(TB) leukemia
[34] = test system: HCC-2998 colon
[35] = test system: SNB-78 CNS
[36] = test system: SF-539 CNS
[37] = test system: HOP-92 NSCLC
[38] = test system: UO-31 renal
[39] = test system: DMS 273 small cell lung
[40] = test system: A549 NSCLC
[41] = test system: SW-620 colon
[42] = test system: NCI-H522 lung
[43] = test system: HOP-62 NSCLC
[44] = test system: SNB-19 CNS
[45] = test system: M19-MEL melanoma
[46] = test system: MOLT-4 leukemia
[47] = test system: NCI/ADR-RES ovarian
[48] = test system: MALME-3M melanoma
[49] = test system: RXF 393 renal
[50] = test system: LOX IMVI melanoma
[51] = test system: KM20L2 colon
[52] = test system: OVCAR-5 ovarian
[53] = test system: SK-MEL-2 melanoma
[54] = test system: KM12 colon
[55] = test system: HT29 colon

CC1C(O)[C@@]2(OC[C@@]34C(=O)CC5(O)[C@H](CCC6Cc7nc8c(nc7C[C@]65C)CC5CC[C@@H]6C7=C[C@H]9O[C@@]%10(O[C@@](C)(CO)C[C@@H]%10O)C(C)[C@@]9(O)[C@]7(C)[C@@H](O)CC6[C@]5(C)C8)C3=CC[C@H]4C2C)OC1(C)C (stereo not given in full)
TGI [1]: > 3550 nM | TGI [2]: 379 nM | TGI [3]: 625 nM | TGI [4]: > 3550 nM | TGI [5]: > 3550 nM | TGI [6]: 3430 nM | TGI [7]: > 3550 nM | TGI [8]: 94.2 nM | TGI [9]: 370 nM | TGI [10]: 499 nM | TGI [11]: 26.6 nM | TGI [12]: 274 nM | TGI [13]: > 3550 nM | TGI [14]: 96.6 nM | TGI [15]: > 3550 nM | TGI [16]: < 0.355 nM | TGI [17]: 101 nM | TGI [18]: 79.8 nM | TGI [19]: > 3550 nM | TGI [20]: 215 nM | TGI [21]: > 3550 nM | TGI [22]: < 0.355 nM | TGI [23]: 1.05 nM | TGI [24]: 4.89 nM | TGI [25]: 652 nM | TGI [26]: 542 nM | TGI [27]: 21.2 nM | TGI [28]: 93.7 nM | TGI [29]: 435 nM | TGI [30]: 415 nM | TGI [31]: 977 nM | TGI [32]: 361 nM | TGI [33]: 536 nM | TGI [34]: > 3550 nM | TGI [35]: 3440 nM | TGI [36]: 4.87 nM | TGI [37]: 3250 nM | TGI [38]: 134 nM | TGI [39]: 0.455 nM | TGI [40]: 494 nM | TGI [41]: 43.3 nM | TGI [42]: 83 nM | TGI [43]: 1.5 nM | TGI [44]: 206 nM | TGI [45]: > 3550 nM | TGI [46]: < 0.355 nM | TGI [47]: > 3550 nM | TGI [48]: 27.5 nM | TGI [49]: < 0.355 nM | TGI [50]: 864 nM | TGI [51]: 66.9 nM | TGI [52]: 79.5 nM | TGI [53]: 14.1 nM | TGI [54]: > 3550 nM | TGI [55]: 61 nM
